Test results: patent US9918988B2, “Ammonium derivatives for the treatment of hepatitis C” (priority 2013, dated 2018)
Like-named read-outs stand apart in the source and are kept apart here.

System: HCV pseudoparticles (genotype 1a HCV E1 and E2 envelope, H77C isolate)
Assay: HCV pseudoparticle infection assay (genotype 1a, luciferase reporter, Huh7 cells)
Assay type: cell-based
Settings: Hepatitis C virus, Huh-7, 48 h, read-out: EC50 (1a, nM), HCV genotype 1a pseudoparticles, Huh7 cells, luciferase 2 days after infection

| Structure (SMILES) | EC50 (class symbol) | EC50 (numeric value) |
| --- | --- | --- |
| C[N+](C)(C)CCNC(=O)c1ccc(Nc2nc(NC3(c4ccc(Cl)cc4)CC3)nc(OCC(F)(F)F)n2)cc1 [Compound 1001, 2-(4-(4-(1-(4-chlorophenyl)cyclopropylamino)-6-(2,2,2-trifluoroethoxy)-1,3,5-triazin-2-ylamino)benzamido)-N,N,N-trimethylethanaminium] | 0.01 to 10 nM |  |
| [2H]C([2H])(Oc1nc(Nc2ccc(C(=O)NCC[N+](C)(C)C)cc2)nc(NC2(c3ccc(Cl)cc3)CC2)n1)C(F)(F)F [Compound 1002, 2-(4-(4-(1-(4-chlorophenyl)cyclopropylamino)-6-(2,2,2-trifluoroethoxy-D2)-1,3,5-triazin-2-ylamino)benzamido)-N,N,N-trimethylethanaminium] | 0.01 to 10 nM |  |
| C[N+](C)(C)CC(=O)NNC(=O)c1ccc(Nc2nc(NC3(c4ccc(Cl)cc4)CC3)nc(OCC(F)(F)F)n2)cc1 [Compound 1003, 2-(2-(4-(4-(1-(4-chlorophenyl)cyclopropylamino)-6-(2,2,2-trifluoroethoxy)-1,3,5-triazin-2-ylamino)benzoyl)hydrazinyl)-N,N,N-trimethyl-2-oxoethanaminium] | 10 to 1000 nM | 64.1 nM |
| C[N+](C)(C)CCCNC(=O)c1ccc(Nc2nc(NC3(c4ccc(Cl)cc4)CC3)nc(OCC(F)(F)F)n2)cc1 [Compound 1004, 3-(4-(4-(1-(4-chlorophenyl)cyclopropylamino)-6-(2,2,2-trifluoroethoxy)-1,3,5-triazin-2-ylamino)benzamido)-N,N,N-trimethylpropan-1-aminium] | 0.01 to 10 nM |  |
| C[N+](C)(C)CCCC[C@H](NC(=O)c1ccc(Nc2nc(NC3(c4ccc(Cl)cc4)CC3)nc(OCC(F)(F)F)n2)cc1)C(=O)O [Compound 1005, (S)-5-carboxy-5-(4-(4-(1-(4-chlorophenyl)cyclopropylamino)-6-(2,2,2-trifluoroethoxy)-1,3,5-triazin-2-ylamino)benzamido)-N,N,N-trimethylpentan-1-aminium] | 0.01 to 10 nM |  |
| CC(C)(CNC(=O)c1ccc(Nc2nc(NC3(c4ccc(Cl)cc4)CC3)nc(OCC(F)(F)F)n2)cc1)C[N+](C)(C)C [Compound 1006, 3-(4-(4-(1-(4-chlorophenyl)cyclopropylamino)-6-(2,2,2-trifluoroethoxy)-1,3,5-triazin-2-ylamino)benzamido)-N,N,N,2,2-pentamethylpropan-1-aminium] | 0.01 to 10 nM | 0.115 nM |
| C[N+](C)(C)CCNC(=O)c1ccc2cc1OCCCCCCCCOc1ccc(cc1)CNc1nc(nc(OCC(F)(F)F)n1)N2 [Compound 2001] | 0.01 to 10 nM |  |
| C[N+](C)(C)CCNC(=O)c1ccc2cc1OCCCCCCOc1ccc(cc1)CNc1nc(nc(OCC(F)(F)F)n1)N2 [Compound 3001] | 0.01 to 10 nM |  |
| C[N+](C)(C)CCCNC(=O)c1ccc2cc1OCCCCCCOc1ccc(cc1)CNc1nc(nc(OCC(F)(F)F)n1)N2 [Compound 3002] | 10 to 1000 nM |  |
| CC(C)(CNC(=O)c1ccc2cc1OCCCCCCOc1ccc(cc1)CNc1nc(nc(OCC(F)(F)F)n1)N2)C[N+](C)(C)C [Compound 3003] | 0.01 to 10 nM | 7.51 nM |
| C[N+](C)(C)CCNC(=O)c1ccc2cc1OCCOCCOCCOc1ccc(cc1)CNc1nc(nc(OCC(F)(F)F)n1)N2 [Compound 4001] | 0.01 to 10 nM |  |
